Tested on: M. tuberculosis H37Rv growth inhibition
Test: M. tuberculosis H37Rv growth inhibitors, H37Rv strain (AID 1626)
Conditions: for IC90: measured here: IC90 against H37Rv; for CC50: measured here: Vero cell cytotoxicity

Structure (SMILES)	IC90 [µM]	IC50 [µM]	CC50 [µM]
O=C(CCl)Oc1ccc2occ(C(=O)c3cccs3)c2c1	> 100	–	–
CSc1ccc(NC(=O)N2CCN(c3nc4ccccc4s3)CC2)cc1	> 100	9.18	> 40
COC(=O)C(CC(C)C)NC(=O)/C=C/c1ccccc1Cl (stereo unspecified)	7.81	4.67	–
CCOc1ccc(NC(=O)CSC2=NCCN2)cc1	> 100	11.6	–
O=c1c2ccccc2nc(-c2ccc(Cl)c(Cl)c2)n1O	> 100	43.8	> 40
Oc1cnn(-c2ccccc2)c1	> 100	–	–
Nc1c(C(=O)NCc2ccccc2)c2nc3ccccc3nc2n1CCCN1CCOCC1	17.1	12.7	> 40
O=C1c2cccc3c([N+](=O)[O-])ccc(c23)C(=O)N1Cc1cccnc1	3.69	2.02	6.25
CCOC(=O)CC(=O)Nc1ccc(C(=O)OCC)cc1	> 100	10	–
CCC(CO)[n+]1c(C)cc(/C=C2\Sc3ccccc3N2Cc2ccccc2)cc1C (stereo unspecified)	1.95	1.3	23.2
O=S(=O)(c1ccc(Cl)c(Cl)c1)c1snnc1-c1ccccc1	5.42	2.71	3.84
CCn1c(/C=C/c2ccc([N+](=O)[O-])o2)nc2ccccc2c1=O	0.383	< 0.195	15.6
O=C(Nc1ncc(Cc2cccc(Cl)c2)s1)C1=NCCN1	> 100	6.98	> 40
O=C1c2ccccc2C(=O)N1CCCCN(C(=O)c1cc([N+](=O)[O-])cc([N+](=O)[O-])c1)c1ccc(Cl)cc1	1.65	1.23	–
CCOC(=O)c1cnc(Nc2nc3ccccc3o2)nc1C	> 100	20.4	22.5
CCOc1[nH]n(-c2ccccc2)c(=O)c1C=Nc1ccc(OC)cc1	> 100	–	–
Cn1cc(CN2CCN(c3ccc(Cl)cn3)CC2)c(-c2ccccc2F)n1	> 100	–	–
O=C(OCC(=O)c1c[nH]c2ccccc12)c1cc2ccccc2cc1O	> 100	11.3	> 40
CN=C(Nc1cc(Cl)ccc1Cl)SC1CC(=O)N(c2ccc(C(=O)OC)cc2)C1=O (stereo unspecified)	> 100	24.9	> 40
CCOc1ccc(CN2CCN(CC(O)Cn3c4ccccc4c4ccccc43)CC2)cc1 (stereo unspecified)	6.2	4.35	13.6
CC(=O)n1cc(N(C(=O)CCl)c2ccc(C)cc2)c2ccccc21	17.1	4.64	0.471

Structure (SMILES)	IC90 [µM]	IC50 [µM]	CC50 [µM]
O=C(CN1C(=O)C2C3CCC(C3)C2C1=O)Oc1ccc2ccccc2c1 (stereo unspecified)	> 100	–	–
O=C(CSCC(=O)Nc1ccc2ccccc2c1)NCc1ccccc1	> 100	35.4	–
O=C(Nc1nc(-c2ccccn2)cs1)C1CCCC1	5.83	2.54	> 40
c1ccc(OCCOCCN2CCN(C(c3ccccc3)c3ccccc3)CC2)cc1	13.5	11.7	> 40
O=c1oc2ccccc2nc1/C=C(\O)c1ccc(Br)cc1	> 100	3.56	–
CCOC(=O)C(C)Sc1ncnc2c1nnn2-c1ccc(F)cc1 (stereo unspecified)	21.6	2.47	–
CCN(CC)C(=O)CSc1nnc2nnc3cc(Cl)ccc3n12	7.51	1.22	19.8
CCCN(CCC)CC(O)Cn1cc(/C=C/C(=O)c2ccccc2)c2ccccc21 (stereo unspecified)	1.66	1.5	20.3
Cn1cnnc1SCc1ccc(-c2ccc(Br)cc2)o1	> 100	–	> 40
O=C(/C=C/c1ccc(Cl)c([N+](=O)[O-])c1)c1cccnc1	2.47	1.18	38.8
Cc1cc(N)c2cc(NC(=O)/C=C/c3ccccc3Cl)ccc2n1	2.84	1.68	1.76
Clc1ccc(CNc2nc(CN3CCOCC3)nc3scc(-c4ccccc4)c23)cc1	25	22	> 40
O=C(CCC(=O)OCc1ccc(C(=O)Oc2ccccc2)cc1)Nc1cccc2ccccc12	10.1	7.06	> 40
O=c1cc(C(Cl)(Cl)Cl)oc2c1ccc1ccccc12	1.8	1.1	10.9
c1ccc(-c2nc(N3CCCCCC3)nc(-n3ccnc3)n2)cc1	1.9	0.253	30
N=C1S/C(=C\c2ccco2)C(=O)N1c1nccs1	< 0.195	< 0.195	22.5
Cc1cc(NC(=O)c2c(F)cccc2Cl)n(-c2nc3ccccc3[nH]2)n1	25.9	16.5	> 40
COC(=O)C(Oc1ccc2c(-c3ccc(OC)cc3)cc(=O)oc2c1)c1ccccc1 (stereo unspecified)	20.9	15.4	–
Cc1nn(-c2ccccc2)c(C)c1C(=O)Nc1nnc(-c2ccco2)o1	> 100	13.5	38.5
CCCn1c(NC(=O)c2ccc(Br)cc2)nc2ccccc21	> 100	17.2	> 40
O=C(/C=C/c1cccc(Cl)c1)c1nc2ccccc2[nH]1	3.34	2.94	15.3

Structure (SMILES)	IC90 [µM]	IC50 [µM]	CC50 [µM]
CCCCC(=O)Nc1ccc2c(c1)oc1ccccc12	> 100	–	–
COC(=O)c1nc(-c2ccc3c(n2)C(=O)C(N)=C(OC)C3=O)c(N)c(-c2ccc(OC)c(OC)c2O)c1C	> 100	–	1.35
Cc1ccc(NC(NC(=O)c2cccs2)C(Cl)(Cl)Cl)cc1C (stereo unspecified)	> 100	24.3	> 40
Cc1ccc(C)c(-c2cc(C(=O)Nc3nccs3)c3ccccc3n2)c1	11.3	8.18	–
COC(=O)C(CC(C)C)NC(=O)/C=C/c1ccc(Cl)cc1 (stereo unspecified)	6.5	3.88	–
O=C(Nc1ncc(Cc2ccccc2Cl)s1)C1=NCCN1	10.3	3.75	> 40
CC/C(=C\C(=O)c1cccnc1)Nc1ccc(C)c(C)c1	–	–	> 40
Cc1ccc(CN2CCSc3ccc(C(=O)NC4CCN(Cc5ccccc5)CC4)cc32)cc1	–	–	18.4
CCOc1ccc(N=C/C=C/c2ccccc2)c(O)c1	5.41	0.939	38
CC1CC(C)CN(C(=O)c2ccc(CNc3c(N4CCCC4)c(=O)c3=O)cc2)C1 (stereo unspecified)	1.64	1.46	–
COc1ccc(CCNC(=O)NC23CC4CC(CC(C4)C2)C3)cc1	> 100	12.9	> 40
O=C(Oc1ccccc1Cl)c1ccc(N2CCOCC2)c([N+](=O)[O-])c1	11.1	4.09	–
CCOC(=O)CSc1ccc(-c2nc3ccccc3[nH]2)cn1	5.54	2.98	> 40
Cc1cccc(-c2cc3nc(C)c(C)c(NCCCn4ccnc4)n3n2)c1	8.03	4.54	> 40
Cc1ccccc1C(=O)N1CCc2cc(-c3nc(NC(=O)Cc4ccc5c(c4)OCO5)sc3C)ccc21	–	–	> 40
CCCSc1ccc(C(=O)Nc2ccc(Cl)cc2)cn1	> 100	27.9	–
COc1ccc(CCNc2cc(C)nc3c(-c4ccccc4)c(C)nn23)cc1OC	8.82	3.56	–
Cc1cc(C)c2nc(/N=C(\N)NC(=O)Nc3ccccc3)nc(C)c2c1	5.93	4.02	> 40
COc1cccc(CC2(CO)CCCN(Cc3[nH]c4ccc(C)cc4c3C)C2)c1 (stereo unspecified)	11.2	8.49	> 40
CCOC(=O)C(/C=C(\C#N)C(=O)OCC)=C(/N)N1CCN(c2ccc(Cl)cc2)CC1	13	11.7	–
COc1cccc(-c2nnc(Nc3nc4c(F)cccc4s3)o2)c1	51.8	1.56	> 40

Structure (SMILES)	IC90 [µM]	IC50 [µM]	CC50 [µM]
COc1ccc2nc(N=Nc3ccc(O)c4ccccc34)sc2c1	10.1	5.17	4.6
O=C(OCC#CCSc1nnc(-c2ccccc2)o1)c1ccco1	3.94	1.16	–
CCOC(=O)N1CCN=C1SCc1ccc(C(F)(F)F)cc1	> 100	–	–
COc1ccc(C(=O)CCNc2ccc(C)c(Cl)c2)cc1	> 100	58.9	–
Cn1c(C(C#N)C(=O)c2sc3ccccc3c2Cl)nc2ccccc21 (stereo unspecified)	–	–	> 40
Cc1nc(Nc2ccc(Cl)c(Cl)c2)sc1C(=O)Nc1ccccc1	38	14.4	20.9
O=C(c1ccc2c3c(cccc13)CC2)C1CCCN(Cc2ccccn2)C1 (stereo unspecified)	> 100	10	> 40
O=C(Nc1ccc(Cl)cc1)c1cc2c(cc1O)[nH]c1ccccc12	2.29	1.71	13.4
CCOC(=O)COc1ccc2c(=O)c(-c3ccccc3)coc2c1	0.755	< 0.195	–
O=C(CSc1nc2cc(Cl)ccc2o1)NCCc1ccccc1	1.09	< 0.391	–
COc1ccc(CN2CCN(CC(O)Cn3c4ccccc4c4ccccc43)CC2)cc1 (stereo unspecified)	8.3	5.34	15
CCCOc1cccc(-c2nn(-c3ccccc3)cc2/C=C(\C#N)C(=O)NCCCn2ccnc2)c1	11.9	10.9	> 40
Cc1ccccc1OCc1n(CC(=O)OC2CC(C)CCC2C(C)C)c2ccccc2[n+]1C (stereo unspecified)	5.17	3.74	24.4
Cc1ccc(C(=O)/C=C/C(=O)c2ccc(C)cc2)cc1	9.24	5.49	> 40
CC(C)(C)C(=O)Nc1ccc(-c2nc3ccccc3c(=O)o2)cc1	20.2	9.98	–
CCc1ccc(-c2nn(-c3ccccc3)cc2CSC(=N)N)cc1	10.7	6.73	14
CCOC(=O)c1cc(-c2csc(COc3ccccc3)n2)on1	35.2	1.84	–
CCC(=O)Nc1nc2ccccc2n1Cc1ccc(C)cc1	11	1.39	> 40
COc1cccc2sc(N(CCCN(C)C)C(=O)C(c3ccccc3)c3ccccc3)nc12	18.4	13.5	21.8

From PubChem BioAssay AID1626 (SRMLSC, 2009)
